Here are results for one molecule from patent US9290464B2 (priority 2010, dated 2016).

The subject of test [1] is NGF. The experiment in a line: Amount of NGF mRNA in striatum of mouse without neurotoxin. It counts as in vivo, C57BL/6 mice. The following applies: 1 mg/kg oral once a day for 8 days each; FIG. 15.
Description: Next day after the last day of administration, striatum and substantia nigra tissues were taken out of each group of mice. mRNA was extracted from the cell of the taken tissue, and thus the amount of mRNA of NGF was measured by real-time RT-PCR.
For test [2], the system named is malonate-induced mouse. The experiment in a line: Striatum damage in malonate-induced mouse (TTC staining). The test is classed as in vivo, ICR mice. The conditions noted are these: 5 mg/kg i.p., five times; TTC staining 3 days after malonate; FIGS. 7 and 8. How it is done:
5 ml/kg of equithesin was administered to each mouse via intraperitoneal injection to be anesthetized, two levelers of a stereotactic instrument were set at 0 mm from both external auditory canals, and the skull of the mouse was perforated in the stereotactic instrument. 0.2 mg/ml of ascorbic acid was used as a control, and 2.4 umole/2 of malonate was injected into a lesion group and a compound treatment group 0.5 mm forward (AP) and 1.2 mm sideward from striatum on the right side (bregma) and 3.1 mm downward from dura matter by using a Hamilton syringe (10 μl, 26G needle) at a rate of 1 uL/min. The groups administered with malonate were divided into two groups, and 0.5 ml/kg of excipient (n=12) and 5 mg/kg of CBI (n=14) were respectively administered to the two groups via intraperitoneal injection 2 hours before an operation and administered again 1 hour, 1 day, 2 days and 3 days after the operation, i.e., total five times. Malonate was injected into striatum of the mouse, the mouse was sacrificed after 3 days, and the brain was taken out of the mouse to prepare a section. Thereafter, the section was stained with 2,3,5-triphenyltetrazolium chloride (TTC).

Test [3] concerns MPTP-induced mouse. Put plainly: Tail suspension test in MPTP-induced mouse. It counts as in vivo, C57BL/6 mice. The following applies: FIG. 3. The method, then: The tail suspension test was performed to measure the extent of causation of behavioral loss according to the administration of MPTP and medicines. The TST was performed in such a manner that 7 days after the compounds described above are respectively administered to the three groups, a circular stainless steel stick with a width of 1 cm was fixed to a cage with a width of 16 cm and a height of 40 cm located at a height of 35 cm and whose left and right sides were covered by black wood. The movement time of the mice was measured for 6 minutes in a second unit, and thus the efficacies of the compounds were evaluated.

Test [4] concerns MPTP-induced mouse. Put plainly: Number of neurites and spines per neuron in MPTP-induced mouse (confocal microscopy). The test is classed as in vivo, C57BL/6 mice. The conditions noted are these: 1 mg/kg oral once a day for 10 days after MPTP. The method, then: To observe whether or not the number of neurites and spines per neuron in the tissues was increased, a coronal slice with a thickness of 200 um containing striatum or substantia nigra was prepared using a vibratome. Each group of mice was sacrificed, and the brain was taken out of each group and then placed in a cold, highly-concentrated sucrose dissection buffer bubbled with carbogen (5% CO2 and 95% O2) (87 mM NaCl, 2.5 mM KCl, 1.25 mM NaH2PO4, 25 mM NaHCO3, 1 mM CaCl2, 3 mM MgCl2, 10 mM dextrose, and 75 mM sucrose). While the vibratome was performed, a slicing chamber was filled with the uniformly carbogenated sucrose dissection buffer. After the slicing process was terminated, all the slices were washed with PBS, and fixed with 4% paraformaldehyde in a PBS solution. The fixed brain slices were placed on a 1.5% agarose (in PBS) block. Images thereof were obtained using a confocal microscope (ZEISS LSM 510 META) by using Zeiss LSM image browser software (Carl Zeiss Microimaging, Germany, version 4.0 SP2).

For test [5], the system named is MAO-B-deficient human neuroblastoma SH-SY5Y cells. Put plainly: Transmembrane potential of mitochondria (MitoPT kit) in MPP+-treated cells. It counts as cell-based. The conditions noted are these: 2 mM MPP+, 24 hours, FIG. 16. How it is done:
In this embodiment, MAO-B-deficient human neuroblastoma SH-SY5Y cells (Korean Cell Line Bank) were used. The cells were incubated in a DMEM medium in 5% of CO2 at 37° C. for 24 hours. The cultured cells were divided into five groups, 2 mM of 1-methyl-4-phenyl-pyridium (MPP^+) was added to each group, three of the five groups were respectively treated with 1 nM, 10 nM and 50 nM of CBI, one of the other two groups was treated with 10 nM of rasagiline, and the CBI- or rasagiline-treated four groups were further incubated in 5% of CO2 at 37° C. for 24 hours. The group with only MPP^+ added thereto was incubated under the same conditions as describe dabove. Subsequently, according to manufacturer's protocols, the transmembrane potential of mitochondria was determined using MitoPT™ kit (Immunochemistry Technology). The transmembrane potential of mitochondria was confirmed using a fluorescent plate reader (Tecan, Austria). […] Thus, RFU values (red fluorescence value/green fluorescence value) were determined from the results, and the results are shown in FIG. 16.

Test [6] relates to SOD. The experiment in a line: Activity of SOD in striatum and substantia nigra of mouse. It counts as in vivo, C57BL/6 mice. The following applies: 1 mg/kg oral for 8 days, no neurotoxin; FIG. 22.
Description: Next day after the last day of administration, striatum and substantia nigra tissues were taken out of each group of mice. Cell extracts were obtained from the cells of the tissues, and thus the activities of the catalase, SOD and GPx were measured.
In test [7] the test system is MPTP-induced mouse. Put plainly: Concentration of dopamine in striatum of MPTP-induced mouse (HPLC). It counts as in vivo, C57BL/6 mice. The following applies: 1 mg/kg oral once a day, FIG. 4. The method, then:
7 days after the compounds described above are respectively administered to the three groups, the mice in each group were sacrificed by cervical dislocation and brain tissues were immediately taken out of the mice. Striatum was collected from the brain tissue, 0.5 ml of a HPLC assay diluent (0.1 M HClO4, 0.1 mM EDTA) was added to the striatum, and a tissue homogenate was then prepared using an ultrasonic processor. The homogenate was centrifuged at 12,000 rpm for 15 minutes, and the supernatant was filtered with a nitrocellulose filter (0.2 um, Millipore). For HPLC analysis, HR-80 column (80 mm×4.6 mm, particle size: 3 μm ESA, USA) was used, the flow rate of a mobile phase (0.07 M monobasic sodium phosphate, 1 mM sodium octasulfonic acid, 0.1 uM EDTA, 5% acetonitrile, pH 3.2) was maintained at 0.7 ml/min, and the electrode potential of an electrochemical detector (Coulochem III, ESA, USA) was at E1=−100 mV, E2=350 mV.

The test system of test [8] is dopamine transporter. Put plainly: Dopamine transporter binding assay ([125I]PE2I) on striatum sections of MPTP-induced monkey. The test is classed as in vivo, Macaque monkeys. The conditions noted are these: FIG. 2.

Turning to `NC(=O)OCc1cc(-c2ccc(OCc3ccccc3)cc2)no1` [CBI, carbamic acid 3-(4-benzyloxy-phenyl)-isoxazole-5-yl methylester], the “expression of NGF in the striatum compared with rasagiline group” value in test [1] is listed as “significantly higher”. Further, the “damaged regions of the striatum induced by malonate” value in test [2] is listed as “significantly reducing damaged regions of the striatum”. For the same molecule, in test [3] (1 mg/kg oral each), the “behavioral restoration in tail suspension test compared with rasagiline group” value is “excellent capability of behavioral restoration”. Besides, the “behaviors in tail suspension test” value in test [3] (1 mg/kg oral once a day after MPTP 30 mg/kg i.p. x 4 days) is on record as “the same extent of behaviors as those of normal mice”. The number of neurites result in test [4] (FIG. 23) was “increased”. Also, the number of spines result in test [4] (FIG. 24) is on record as “recovered to the level of normal cells”. Moreover, the “transmembrane potential of mitochondria” value in test [5] (1 nM, 10 nM and 50 nM) is recorded as “stabilized concentration-dependently”. Also, in test [5] (rasagiline 10 nM), the “stability effect of the transmembrane potential of mitochondria relative to same concentration of rasagiline” value is listed as “no less than 2 times”. Moreover, the “activity of the SOD” value in test [6] is recorded as “no significant change”. Further, the “restoration of the concentration of dopamine in striatum compared with normal mice” value in test [7] is on record as “about 70%”. Also, the “dopamine transporters in medial striatum and caudal striatum” value in test [8] (1 mg/kg oral for 4 weeks after MPTP) is listed as “a large number of dopamine transporters”. The “amount of dopamine transporters compared with rasagiline group” value in test [8] (same amount (1 mg/kg) of rasagiline) was “significantly larger amount of dopamine transporters”.
